Data: patent US20050256003A1, “Novel herbicides” (priority 2002, published 2005)

Test system: selected test plants
Experiment: Post-emergence action in a different test arrangement (Table B3)
Type: in vivo
Set-up: key to Post-emergence action (different test arrangement), Nasturtium / Post-emergence action (different test arrangement), Stellaria / Post-emergence action (different test arrangement), Solanum: 10=total damage; 0=no action; Ratings of from 10 to 7 (especially from 10 to 8) indicate good to very good herbicidal action
Settings: 250 g a.i./ha

Row | Structure (SMILES) | Post-emergence action (different test arrangement), Amaranthus | Post-emergence action (different test arrangement), Nasturtium | Post-emergence action (different test arrangement), Solanum | Post-emergence action (different test arrangement), Stellaria
1 | Cn1c(=O)n(Cc2nc(C(F)(F)F)ccc2C(=O)C2=C(O)CCCC2=O)c(=O)n1C [Compound A1.211] | 9 | 10 | 9 | 7
2 | Cn1ncc(C(=O)c2ccc(C(F)(F)F)nc2CN2CCCC2=O)c1O [Compound B1.223] | 8 | 10 | 9 | 10
3 | CC1CCC(=O)N1Cc1nc(C(F)(F)F)ccc1C(=O)C1=C(O)CCCC1=O (stereo not shown) [Compound A1.223] | 8 | 10 | 9 | 9
4 | Cn1ncc(C(=O)c2ccc(C(F)(F)F)nc2CN2CN(c3ccc(Cl)cc3)CC2=O)c1O [Compound B1.238] | 9 | 8 | 9 | 7
5 | Cn1ncc(C(=O)c2ccc(C(F)(F)F)nc2CN2CCC2=O)c1O [Compound B1.225] | 8 | 10 | 9 | 10
6 | Cc1nc(C)n(Cc2nc(C(F)(F)F)ccc2C(=O)C2=C(O)CCCC2=O)c(=O)c1Cl [Compound A1.209] | 7 | 9 | 9 | 7
7 | Cc1nn(Cc2nc(C(F)(F)F)ccc2C(=O)C2=C(O)CCCC2=O)c(=O)o1 [Compound A1.097, 3-[3-(2-Hydroxy-6-oxo-cyclohex-1-enecarbonyl)-6-trifluoromethyl-pyridin-2-ylmethyl]-5-methyl-3H-[1.3.4]oxadiazol-2-one] | 9 | 10 | 9 | 9
